Our source for the IC50 values is patent publication EP0418064B1, “Naphthalene and tetrahydronaphthalene gem-diphosphonate derivatives” (SYMPHAR S.A., priority 1989, dated 1991).

For the test, the system named is Rat liver homogenates. The test can be described thus: Antioxidant activity: FeSO₄-induced peroxide production in rat liver homogenates (thiobarbituric acid reaction). The class given is biochemical. To be noted: rat liver homogenate incubated with FeSO₄; peroxide determined by thiobarbituric acid reaction, malonaldehyde as standard; read-out: IC₅₀. The method, then:
Rat liver homogenates were prepared according to Fraga, C.G. et al. Free Radicals Biol. Med., 4, 155, 1988 and Kornburst D.J. et al. Lipids 15, 315, 1980.
Peroxides were generated by incubation of the homogenate with the FeSO₄ as described by Quitanilha A.T. et al. Ann. N.Y., Acad. Sci. 393, 32, 1982.
Compounds to be tested for their antioxidant activity were dissolved in DMSO and added to the incubation mixture. The amount of peroxide produced was determined by the thiobarbituric acid reaction using malonaldehyde as standard.

In the case of `CCOP(=O)(OCC)C(=Cc1cc(C(C)(C)C)c(O)c2c1CCCC2)P(=O)(OCC)OCC` [Example 6, Tetraethyl 2-(3-tert-butyl-4-hydroxy-5,6,7,8-tetrahydronaphthyl)-ethenylidene-1,1-diphosphonate], the IC50 was determined as 7000 nM.

Consider `CCOP(=O)(OCC)C(=Cc1cc(C(C)(C)C)c(O)c2ccccc12)P(=O)(OCC)OCC` [Example 1, Tetraethyl 2-[3-t-butyl-4-hydroxynaphthyl]ethenylidene-1,1-diphosphonate], for which the IC50 worked out at 1500 nM.

On to `CC(C)OP(=O)(OC(C)C)C(=Cc1cc(C(C)(C)C)c(O)c2c1CCCC2)P(=O)(OC(C)C)OC(C)C` [Example 8, Tetraisopropyl 2-[3-tert-butyl-4-hydroxy-5,6,7,8-tetrahydronaphthyl]-ethenylidene-1,1-diphosphonate], for which the IC50 worked out at 2500 nM.

On to `CC(C)OP(=O)(OC(C)C)C(=Cc1cc(C(C)(C)C)c(O)c2ccccc12)P(=O)(OC(C)C)OC(C)C` [Example 2, Tetraisopropyl 2-[3-t-butyl-4-hydroxynaphthyl]ethenylidene-1,1-diphosphonate], for which the IC50 stood at 700 nM.
